From patent publication US12655091B2, “N-benzyl-alpha-aminoamides as anaphase-promoting complex/cyclosome (APC/C) inhibitors” (CONSEJO SUPERIOR DE INVESTIGACIONES CIENTÍFICAS (CSIC), priority 2020, dated 2026)
Several values for one entry are separate records, joined by “and”; a condition that tells them apart may be missing. Equal values may be shown once. Entries after “also recorded” stand apart in the source; their conditions may differ. Read-outs that look alike come from different tables or passages of the source.

Legend:
[1] = molecular target: T1, APC/C activation by Cdc20 (Homo sapiens, UniProt Q12834); assay: Western blot of Cyclin B1 levels (inhibition of APC/C activation by Cdc20); assay type: cell-based; settings: HCC-38 cells, FIG. 9
T1 construct: endogenous in cells; the method paragraph speaks of HeLa cells
Procedure: FIG. 9. […] Consequently, non-ubiquitylated Cyclin B escapes degradation by the proteasome. […] HCC-38 cells at a density of 200,000 cells per well were used in this study.
The entirety of the following procedure was carried out under aseptic conditions. HeLa cells were counted and seeded into clear bottom 6-well plates (Greiner Bio-One) at a density of 200,000 cells/well in a volume of 2 ml and placed in an incubator (37° C., 5% CO2) overnight. The following day medium was aspired and 1.5 ml of treatment was added to wells. Cells were treated with controls (medium alone) and compounds. All stock solutions of the small compounds were prepared by resuspension of the solid in DSMO, then diluted in medium to the final concentrations being tested. The effect of these compounds on mitosis was analysed by measuring Cyclin B1 levels, a downstream target of APC/C-Cdc20. Cells were incubated and had 24 hours treatment exposure. Plates were then placed on ice and solution from each well was aspired. […]

[2] = tested on: HCC-38 triple negative breast cancer cells; assay: Clonogenic assay of HCC-38 cells; assay type: cell-based; settings: HCC-38, 24 hours treatment, stained after 12 days, FIG. 7
Procedure: FIG. 7. Clonogenic assay of HCC-38 cells treated with DMSO (1.2% v/v), the Mps1 kinase inhibitor Reversine, the Cdc20 binder Apcin and compound o-TFB-Tyr. The clones were stained after 12 days incubation at 37 Celsius. Following treatment of the HCC38 cells with the compounds for 24 hours, the medium was exchanged every 48 hrs.
The entirety of the following procedure was carried out under aseptic conditions. HeLa cells were counted and seeded into clear bottom 6-well plates (Greiner Bio-One) at density 500 cells/well (250 cells/ml). 2 ml of cells were added to each well and placed in the incubator (37° C., 5% CO2) overnight. The following day medium was aspired and 1.5 ml of treatment was added to wells. Cells were treated with control (medium alone) and compounds. All stock solutions of compounds were prepared by resuspension of the solid in DMSO, then diluted in medium to the final concentrations being tested. HeLa cells viability was measured using clonogenic assay, a cell survival-based assay that determines cell reproductive death after treatment with cytotoxic agents. Cells were incubated and had 72 hours treatment exposure. […]
Each well of the clonogenic assay was then scanned using an Axiozoom Zeiss Axioplan fluorescence microscope equipped for DIC imaging and fluorescence imaging and analysed using the ImageJ2 image-processing software (Fiji). […]

[3] = Kinetic solubility, turbidimetric method; assay type: physicochemical
Procedure: Kinetic solubility. This is a valuable initial screen that was carried out prior to starting ADME test in order to identify potential issues and to determine appropriate concentration ranges. Kinetic solubility was measured using a turbidimetric method.

[4] = Intestinal permeability assay in Caco-2 cells; assay type: in vitro ADME, human; settings: human
Procedure: (§1) This was determined using an intestinal permeability assay in Caco-2 cells, a human colorectal adenocarcinoma cell line (see FIG. 4).

Caco-2 cells = assay: Intestinal permeability assay in Caco-2 cells; assay type: in vitro ADME, human
Procedure: as §1

[5] = Metabolic stability test (liver microsomes); assay type: in vitro ADME, Human
Excerpt: The liver is the major drug metabolising organ for the large majority of pharmaceutical drugs. A good in vitro model to investigate drug metabolism is based on the use of microsomes, a subcellular fraction of the liver.

CYP3A4 = CYP3A4 (Homo sapiens, UniProt P08684); assay: Cytochrome P450 inhibition IC50 determination (isoform CYP3A4); assay type: in vitro ADME; settings: for inhibition at 0.1 µM / inhibition at 0.25 µM / inhibition at 1 µM / inhibition at 2.5 µM / inhibition at 10 µM / inhibition at 25 µM: human; for inhibition at 0.1 µM: CYP3A4, 0.1 μM; for inhibition at 0.25 µM: CYP3A4, 0.25 μM; for inhibition at 1 µM: CYP3A4, 1 μM; for inhibition at 2.5 µM: CYP3A4, 2.5 μM; for inhibition at 10 µM: CYP3A4, 10 μM; for inhibition at 25 µM: CYP3A4, 25 μM
Excerpt: Two thirds of drugs cleared by metabolism are metabolised at least in part by the cytochrome P450 (CYP) enzymes with the isoform CYP3A4 accounting for almost 50% of all CYP activity. For this reason, we tested whether CYP3A4 is implicated in the clearance of o-TFB-Tyr. […]

[6] = Plasma protein binding assay (human); assay type: in vitro ADME; settings: plasma spiked 1 side; for fraction unbound: plasma
Excerpt: (§2) Non-specific plasma protein binding can greatly affect the extent of free drug concentration which may influence the lead compound's subsequent inhibitory potential (see table 6 below).

plasma protein [7] = assay: Plasma protein binding assay (human); assay type: in vitro ADME
Excerpt: as §2

[8] = Plasma protein binding assay (mouse); assay type: in vitro ADME; settings: plasma spiked 1 side; for fraction unbound: plasma
Excerpt: as §2

plasma protein [9] = assay: Plasma protein binding assay (mouse); assay type: in vitro ADME
Excerpt: as §2

HeLa cells = assay: MTT cytotoxicity assay in HeLa cells; assay type: cell-based
Procedure: The entirety of the following protocol was carried out under aseptic conditions. HeLa cells were cultured in Dulbecco's Modified Eagle's Medium (DMEM) supplemented with 10% Fetal Bovine Serum (FBS) (Sigma F7524). Cells were counted and seeded into clear bottom 96-well plates (Greiner Bio-One) at density 6,000 cells/well. 100 μl of cells were added to each well and placed in the incubator overnight. The following day medium was aspired and 100 μL of treatment was added to wells. Cells were treated with controls (medium alone, Reversine 5 μM, Apcin 25 μM). […]
In vitro cytotoxic analysis involved quantitative measurements of cell proliferation and the subsequent assessment of the relative toxicity of the compounds. (3-(4,5-Dimethylthiazol-2-yl)-2,5-Diphenyltertrazolium Bromide (MTT) is a widely utilised cytotoxic assay that measures cellular metabolic activity as an indicator for cell viability, proliferation and cytotoxicity from the reduction of water soluble yellow tetrazole MTT to insoluble purple formazan crystals by mitochondrial dehydrogenases. The insoluble purple crystalline product was dissolved in DMSO and the resulting coloured solution quantified by measuring the absorbance (570 nm). Reduction can only occur when mitochondrial reductive enzymes are active, thus a direct correlation to the number of viable cells. […]

[10] = kinetic solubility, turbidimetric
[11] = probe testosterone, read-out: % inhibition with substrate testosterone
[12] = read-out: % inhibition with substrate midazolam
[13] = read-out: Fraction unbound Replicate 1
[14] = read-out: Fraction unbound Replicate 2
[15] = read-out: Fraction unbound Replicate 3
[16] = read-out: Mean fraction unbound

T1 sequence (Q12834 whole entry): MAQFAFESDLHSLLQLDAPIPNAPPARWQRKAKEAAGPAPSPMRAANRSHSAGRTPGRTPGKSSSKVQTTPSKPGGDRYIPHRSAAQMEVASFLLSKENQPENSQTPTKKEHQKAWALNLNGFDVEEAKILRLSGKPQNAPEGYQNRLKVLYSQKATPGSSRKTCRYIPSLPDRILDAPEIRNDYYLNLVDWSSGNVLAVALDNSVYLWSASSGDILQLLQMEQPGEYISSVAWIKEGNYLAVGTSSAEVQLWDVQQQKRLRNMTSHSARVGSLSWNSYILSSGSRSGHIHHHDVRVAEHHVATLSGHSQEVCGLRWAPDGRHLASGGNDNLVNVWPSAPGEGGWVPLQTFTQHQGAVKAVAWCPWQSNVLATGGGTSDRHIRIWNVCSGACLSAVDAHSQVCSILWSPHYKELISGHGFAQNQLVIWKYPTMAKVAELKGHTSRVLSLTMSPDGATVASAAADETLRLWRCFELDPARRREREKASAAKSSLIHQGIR
Chain of CYP3A4 (P08684 whole entry, canonical isoform): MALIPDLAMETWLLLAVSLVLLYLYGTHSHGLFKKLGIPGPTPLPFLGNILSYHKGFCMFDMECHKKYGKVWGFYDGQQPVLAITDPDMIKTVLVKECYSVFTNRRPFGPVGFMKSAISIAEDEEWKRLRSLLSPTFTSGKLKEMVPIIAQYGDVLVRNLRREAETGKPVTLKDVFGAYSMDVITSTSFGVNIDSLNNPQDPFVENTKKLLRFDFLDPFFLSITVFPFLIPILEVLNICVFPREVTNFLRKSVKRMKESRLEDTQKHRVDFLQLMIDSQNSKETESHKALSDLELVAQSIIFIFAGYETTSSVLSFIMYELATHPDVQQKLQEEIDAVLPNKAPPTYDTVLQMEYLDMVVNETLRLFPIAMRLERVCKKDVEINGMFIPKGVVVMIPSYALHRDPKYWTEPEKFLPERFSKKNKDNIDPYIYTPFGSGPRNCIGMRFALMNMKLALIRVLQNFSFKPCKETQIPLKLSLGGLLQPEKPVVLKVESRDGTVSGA

Cc1ncc([N+](=O)[O-])n1CCOC(=O)NC(Nc1ncccn1)C(Cl)(Cl)Cl (stereo not shown) [Apcin, reference compound]
Inhibition of Cyclin B ubiquitylation by APC/C / APC/C activation by Cdc20 [1]: comparatively less effective than compound o-TFB-Tyr

c1nc2nc(Nc3ccc(N4CCOCC4)cc3)nc(NC3CCCCC3)c2[nH]1 [Reversine, reference compound]
Number of clones [2]: lower number of triple negative breast cancer cell clones

N[C@@H](Cc1ccc(O)cc1)C(=O)NCc1ccccc1C(F)(F)F [o-TFB-Tyr, (2S)-2-amino-N-[2-(trifluoromethyl)benzyl]-3-[4-(hydroxy)phenyl]propanamide]
Solubility in aqueous solutions [3]: readily soluble in aqueous solutions
Estimated Precipitation Range, Calculated mid-range [3, 10]: >100 µM
Estimated Precipitation Range, Lower bound [3, 10]: 100 µM
Estimated Precipitation Range, Upper bound [3, 10]: >100 µM
recovery ([4]; Caco-2, Caco2, A to B, read-out: Direction A to B Mean % recovery): 62.8%
recovery ([4]; Caco-2, Caco2, B to A, read-out: Direction B to A Mean % recovery): 88.9%
efflux ratio ([4]; Caco-2, Caco2, read-out: Efflux ratio (Mean Papp B to A/Mean Papp A to B)): 0.862
Active transport by membrane proteins such as ABC transporters (Caco-2 cells; Caco2): not actively transported
Diffusion across the membrane (Caco-2 cells; Caco2): diffuses freely across the semipermeable membrane in both directions
Direction A to B Mean Papp (Caco-2 cells; Caco2, A to B): 22.1 ×10⁻⁶ cm/s
Direction B to A Mean Papp (Caco-2 cells; Caco2, B to A): 19.1 ×10⁻⁶ cm/s
Metabolic stability ([5]; Human microsomes): stable
Compound remaining (% of 0 min) ([5]; Human, 0 min): 100 % of 0 min
Compound remaining (% of 0 min) ([5]; Human, 5 min): 107 % of 0 min
Compound remaining (% of 0 min) ([5]; Human, 15 min): 43.7 % of 0 min
Compound remaining (% of 0 min) ([5]; Human, 30 min): 19.3 % of 0 min
Compound remaining (% of 0 min) ([5]; Human, 45 min): 8 % of 0 min and 8.23 % of 0 min
Compound remaining (% of 0 min), Control ([5]; Human, Control incubation): 89.8 % of 0 min
IC50 compared with control compounds (CYP3A4; CYP3A4, midazolam and testosterone as substrates): much higher than that of controls compounds
inhibition at 0.1 µM (CYP3A4; [11]): -0.99%
inhibition at 0.25 µM (CYP3A4; [11]): 0.136%
inhibition at 1 µM (CYP3A4; [11]): 4.21%
inhibition at 2.5 µM (CYP3A4; [11]): 49%
inhibition at 10 µM (CYP3A4; [11]): 77.3%
inhibition at 25 µM (CYP3A4; [11]): 89.5%
inhibition at 0.1 µM (CYP3A4; [12]): 13.7%
inhibition at 0.25 µM (CYP3A4; [12]): 22.5%
inhibition at 1 µM (CYP3A4; [12]): 47.5%
inhibition at 2.5 µM (CYP3A4; [12]): 65.6%
inhibition at 10 µM (CYP3A4; [12]): 84.4%
inhibition at 25 µM (CYP3A4; [12]): 91.1%
recovery [6]: 101%
fraction unbound [6, 13]: 0.352
fraction unbound [6, 14]: 0.328
fraction unbound [6, 15]: 0.304
fraction unbound [6, 16]: 0.328
Non-specific plasma protein binding (plasma protein [7]): absence of non-specific plasma protein binding
recovery [8]: 102%
fraction unbound [8, 13]: 0.28
fraction unbound [8, 14]: 0.28
fraction unbound [8, 15]: 0.301
fraction unbound [8, 16]: 0.287
Non-specific plasma protein binding (plasma protein [9]): absence of non-specific plasma protein binding
Relative cytotoxicity compared with other compounds (HeLa cells; MTT, FIGS. 5 and 6): higher cytotoxic effect
Cytotoxic activity, concentration range (HeLa cells; cytotoxicity and clonogenic studies): 200 to 10 μM
Number of clones [2]: lower number of triple negative breast cancer cell clones
Inhibition of Cyclin B ubiquitylation by APC/C / APC/C activation by Cdc20 [1]: confirmed the inhibitory effect of this compound on APC/C activation by Cdc20; also recorded: confirmed the inhibition of APC/C activation by Cdc20; also recorded: causes inhibition of Cyclin B ubiquitylation by APC/C
